The values below come from patent US6232070A, “Pharmacological targeting of mRNA cap formation” (priority 1999, dated 2001).

In experiment [1] the target is LEF-4 (Autographa californica nuclear polyhedrosis virus, UniProt P41477). The settings on record: reported value; read-out: Km for ATP; cited from earlier work.
Experiment [2] deals with vaccinia triphosphatase (Vaccinia virus, UniProt P04298). The settings on record: reported value; read-out: Km for ATP; cited from earlier work.
Experiment [3] has as its target T1, Hcm1p (Homo sapiens, UniProt O43148).
T1 construct: Δ120 retained 50% of the activity of full-length Hcm1p; His-tag (histidine-rich leader segment, pET16b) (N); made in house; host or cells: Escherichia coli BL21(DE3)
Description: Cap methyltransferase activity of recombinant Hcm1p, methylation of cap-labeled poly(A). In kind it is biochemical.

Experiment [4] has as its target T2, Mce1(1-210)p (Mus musculus, UniProt O55236).
T2 construct: The N-terminal portion of Mce1p from residues 1-210 is an autonomous RNA triphosphatase domain; made in house; host or cells: bacteria
T2 sequence (O55236 1-210): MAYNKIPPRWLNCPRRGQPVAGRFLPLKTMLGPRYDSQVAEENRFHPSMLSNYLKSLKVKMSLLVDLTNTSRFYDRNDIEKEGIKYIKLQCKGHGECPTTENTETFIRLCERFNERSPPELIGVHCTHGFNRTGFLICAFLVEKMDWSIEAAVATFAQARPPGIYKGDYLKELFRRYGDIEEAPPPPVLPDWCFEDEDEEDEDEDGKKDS
Conditions: at 0.5 mM divalent cation; 50 mM Tris buffer; cited from earlier work.

T1 sequence (O43148 whole entry): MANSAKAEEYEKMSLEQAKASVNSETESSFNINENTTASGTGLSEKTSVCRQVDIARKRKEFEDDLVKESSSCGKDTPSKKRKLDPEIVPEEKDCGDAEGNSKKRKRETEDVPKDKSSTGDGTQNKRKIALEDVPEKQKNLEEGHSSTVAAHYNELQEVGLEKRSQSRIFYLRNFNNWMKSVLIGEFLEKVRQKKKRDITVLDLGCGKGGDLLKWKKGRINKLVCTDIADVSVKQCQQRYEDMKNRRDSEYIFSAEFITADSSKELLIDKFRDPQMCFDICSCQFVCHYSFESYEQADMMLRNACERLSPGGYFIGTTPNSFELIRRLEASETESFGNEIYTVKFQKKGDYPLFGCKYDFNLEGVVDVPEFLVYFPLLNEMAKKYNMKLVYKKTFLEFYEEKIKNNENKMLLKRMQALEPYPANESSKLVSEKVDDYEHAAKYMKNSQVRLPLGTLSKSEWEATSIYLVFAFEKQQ
Sequence of LEF-4 (P41477 whole entry): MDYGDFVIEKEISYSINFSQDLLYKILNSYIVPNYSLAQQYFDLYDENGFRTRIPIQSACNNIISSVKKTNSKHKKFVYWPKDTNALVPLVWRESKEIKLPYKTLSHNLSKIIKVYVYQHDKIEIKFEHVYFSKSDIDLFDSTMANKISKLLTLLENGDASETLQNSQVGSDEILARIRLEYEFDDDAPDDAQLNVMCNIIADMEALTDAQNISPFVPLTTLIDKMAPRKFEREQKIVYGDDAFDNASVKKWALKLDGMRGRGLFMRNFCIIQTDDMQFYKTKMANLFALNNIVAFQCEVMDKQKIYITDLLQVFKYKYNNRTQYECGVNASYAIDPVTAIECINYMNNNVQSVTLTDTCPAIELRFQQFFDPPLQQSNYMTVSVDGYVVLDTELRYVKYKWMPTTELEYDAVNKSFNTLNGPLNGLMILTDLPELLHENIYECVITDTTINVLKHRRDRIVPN

Regarding `Nc1ncnc2c1ncn2[C@@H]1O[C@H](COP(=O)(O)OP(=O)(O)OP(=O)(O)O)[C@@H](O)[C@H]1O` [ATP], the Km in experiment [1] was 43 µM; in experiment [2], 800 µM.
Take `Nc1ncnc2c1ncn2[C@@H]1O[C@H](CSCC[C@H](N)C(=O)O)[C@@H](O)[C@H]1O` [AdoHcy, S-adenosylhomocysteine]: the “effect on cap methylation in the presence of AdoMet” value in experiment [3] (500 μM AdoHcy plus 50 μM AdoMet (FIG. 9, lane 4)) is “partially inhibitory”.
On to `C[S+](CC[C@H](N)C(=O)O)C[C@H]1O[C@@H](n2cnc3c(N)ncnc32)[C@H](O)[C@@H]1O` (stereo partly shown) [AdoMet, S-adenosylmethionine], for which the Km in experiment [3] (read-out: AdoMet concentration giving half-maximal activity, cap methylation as a function of AdoMet concentration) was about 25 µM.
As to `[Cl-].[Cl-].[Mg+2]` [MgCl2], in experiment [4], the “inhibition of RNA triphosphatase activity” value is listed as 75%. In addition, the reduction of methylation entry in experiment [3] (1 mM magnesium) is on record as “an order of magnitude”.
With `[Cl][Mn][Cl]` [MnCl2], the “inhibition of RNA triphosphatase activity” value in experiment [4] is recorded as 75%.
